Assay results reported in patent US12227482B2, “Compounds and compositions for the treatment of cancer” (The Regents of the University of California, priority 2016, dated 2025).

What was measured:
Assay type in all cases: cell-based
[1] = test system: A549 cells; assay: Cell viability (CellTiter-Glo ATP content) in A549 cells; details: Homo sapiens, A549, 72 h, 72 hours treatment, cell survival by CellTiter-Glo, 2% fetal bovine serum
How it was run: (§1)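 Cells plated at 5,000 per well in antibiotic-free RPMI with 2% FBS, treated next day in triplicate with increasing compound doses (final DMSO 0.5%) for 72 hours. Viability read as ATP content by CellTiter-Glo luminescence; percent survival relative to vehicle control set as 100%.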

[2] = test system: LOX cells; assay: Cell viability (CellTiter-Glo ATP content) in LOX cells; details: LOX, 72 h, 72 hours treatment, cell survival by CellTiter-Glo, 2% fetal bovine serum
How it was run: as §1

[3] = test system: MelJuSo cells; assay: Cell viability (CellTiter-Glo ATP content) in MelJuSo cells; details: Homo sapiens, MEL-JUSO, 72 hours treatment, cell survival by CellTiter-Glo, 2% fetal bovine serum
How it was run: as §1

CN(C)CCNC(=O)CNC(=O)C1(C)C(c2cccs2)C(c2ccc(F)cc2)=NN1c1ccc(F)cc1F (stereo not drawn) [Compound 107, 1-(2,4-difluorophenyl)-N-(2-(2-(dimethylamino)ethylamino)-2-oxoethyl)-3-(4-fluorophenyl)-5-methyl-4-(thiophen-2-yl)-4,5-dihydro-1H-pyrazole-5-carboxamide]
IC50 [1]: > 2 µM
IC50 [2]: > 2 µM
IC50 [3]: 1 to 2 µM

CC1(C(=O)NCC(=O)NC2COC2)C(c2cccs2)C(c2ccc(F)cc2)=NN1c1ccc(F)cc1F (stereo not drawn) [Compound 108, 1-(2,4-difluorophenyl)-3-(4-fluorophenyl)-5-methyl-N-(2-(oxetan-3-ylamino)-2-oxoethyl)-4-(thiophen-2-yl)-4,5-dihydro-1H-pyrazole-5-carboxamide]
IC50 [1]: > 2 µM
IC50 [2]: > 2 µM
IC50 [3]: > 2 µM

CC1(C(=O)NCC(=O)NCCS(C)(=O)=O)C(c2cccs2)C(c2ccc(F)cc2)=NN1c1ccc(F)cc1F (stereo not drawn) [Compound 109, 1-(2,4-difluorophenyl)-3-(4-fluorophenyl)-5-methyl-N-(2-(2-(methylsulfonyl)ethylamino)-2-oxoethyl)-4-(thiophen-2-yl)-4,5-dihydro-1H-pyrazole-5-carboxamide]
IC50 [1]: > 2 µM
IC50 [2]: > 2 µM
IC50 [3]: > 2 µM

CC1(O)CC(NC(=O)CNC(=O)C2(C)C(c3cccs3)C(c3ccc(F)cc3)=NN2c2ccc(F)cc2F)C1 (stereo not drawn) [Compound 110, 1-(2,4-difluorophenyl)-3-(4-fluorophenyl)-N-(2-(3-hydroxy-3-methylcyclobutylamino)-2-oxoethyl)-5-methyl-4-(thiophen-2-yl)-4,5-dihydro-1H-pyrazole-5-carboxamide]
IC50 [1]: > 2 µM
IC50 [2]: > 2 µM
IC50 [3]: > 2 µM

CON(C)C(=O)CNC(=O)C1(C)C(c2cccs2)C(c2ccc(F)cc2)=NN1c1ccc(F)cc1F (stereo not drawn) [Compound 111, 1-(2,4-difluorophenyl)-3-(4-fluorophenyl)-N-(2-(methoxy(methyl)amino)-2-oxoethyl)-5-methyl-4-(thiophen-2-yl)-4,5-dihydro-1H-pyrazole-5-carboxamide]
IC50 [1]: > 2 µM
IC50 [2]: > 2 µM
IC50 [3]: > 2 µM

CC1(C(=O)NCC(=O)NCCO)C(c2cccs2)C(c2ccc(F)cc2)=NN1c1ccc(F)cc1F (stereo not drawn) [Compound 112, 1-(2,4-difluorophenyl)-3-(4-fluorophenyl)-N-(2-(2-hydroxyethylamino)-2-oxoethyl)-5-methyl-4-(thiophen-2-yl)-4,5-dihydro-1H-pyrazole-5-carboxamide]
IC50 [1]: > 2 µM
IC50 [2]: > 2 µM
IC50 [3]: > 2 µM

CCCCC1C(c2ccc(S(C)(=O)=O)cc2)=NN(c2ccc(F)cc2F)C1(C)C(=O)NCCCC(C)(C)CO (stereo not drawn) [Compound 113, 4-butyl-1-(2,4-difluorophenyl)-N-(5-hydroxy-4,4-dimethylpentyl)-5-methyl-3-(4-(methylsulfonyl)phenyl)-4,5-dihydro-1H-pyrazole-5-carboxamide]
IC50 [1]: > 2 µM
IC50 [2]: > 2 µM
IC50 [3]: > 2 µM

CCCCC1C(c2ccc(S(C)(=O)=O)cc2)=NN(c2ccc(F)cc2F)C1(C)C(=O)NCCOC (stereo not drawn) [Compound 114, 4-butyl-1-(2,4-difluorophenyl)-N-(2-methoxyethyl)-5-methyl-3-(4-(methylsulfonyl)phenyl)-4,5-dihydro-1H-pyrazole-5-carboxamide]
IC50 [1]: > 2 µM
IC50 [2]: > 2 µM
IC50 [3]: > 2 µM

CC(C)(CO)CCCNC(=O)C1(C)C(c2ccco2)C(c2ccc(F)cc2F)=NN1c1ccc(F)cc1F (stereo not drawn) [Compound 115, 1,3-bis(2,4-difluorophenyl)-4-(furan-2-yl)-N-(5-hydroxy-4,4-dimethylpentyl)-5-methyl-4,5-dihydro-1H-pyrazole-5-carboxamide]
IC50 [1]: 0.5 to 1 µM
IC50 [2]: 0.5 to 1 µM
IC50 [3]: 0.25 to 0.5 µM

COCCNC(=O)C1(C)C(c2ccco2)C(c2ccc(F)cc2F)=NN1c1ccc(F)cc1F (stereo not drawn) [Compound 116, 1,3-bis(2,4-difluorophenyl)-4-(furan-2-yl)-N-(2-methoxyethyl)-5-methyl-4,5-dihydro-1H-pyrazole-5-carboxamide]
IC50 [1]: 0.25 to 0.5 µM
IC50 [2]: < 0.25 µM
IC50 [3]: < 0.25 µM

CC(C)(CO)CCCNC(=O)C1(C)C(c2ccsc2)C(c2ccc(F)cc2F)=NN1c1ccc(F)cc1F (stereo not drawn) [Compound 117, 1,3-bis(2,4-difluorophenyl)-N-(5-hydroxy-4,4-dimethylpentyl)-5-methyl-4-(thiophen-3-yl)-4,5-dihydro-1H-pyrazole-5-carboxamide]
IC50 [1]: 0.5 to 1 µM
IC50 [2]: 0.5 to 1 µM
IC50 [3]: 0.25 to 0.5 µM

COCCNC(=O)C1(C)C(c2ccsc2)C(c2ccc(F)cc2F)=NN1c1ccc(F)cc1F (stereo not drawn) [Compound 118, 1,3-bis(2,4-difluorophenyl)-N-(2-methoxyethyl)-5-methyl-4-(thiophen-3-yl)-4,5-dihydro-1H-pyrazole-5-carboxamide]
IC50 [1]: < 0.25 µM
IC50 [2]: < 0.25 µM
IC50 [3]: < 0.25 µM

COC(=O)CNC(=O)C1(C)C(c2ccsc2)C(c2ccc(F)cc2F)=NN1c1ccc(F)cc1F (stereo not drawn) [Compound 119, methyl 2-(1,3-bis(2,4-difluorophenyl)-5-methyl-4-(thiophen-3-yl)-4,5-dihydro-1H-pyrazole-5-carboxamido)acetate]
IC50 [1]: 0.5 to 1 µM
IC50 [2]: 0.25 to 0.5 µM
IC50 [3]: < 0.25 µM

COCCNC(=O)C1(C)C(c2ccc(Cl)o2)C(c2ccc(F)cc2F)=NN1c1ccc(F)cc1F (stereo not drawn) [Compound 120, 4-(5-chlorofuran-2-yl)-1,3-bis(2,4-difluorophenyl)-N-(2-methoxyethyl)-5-methyl-4,5-dihydro-1H-pyrazole-5-carboxamide]
IC50 [1]: < 0.25 µM
IC50 [2]: < 0.25 µM
IC50 [3]: < 0.25 µM

COC(=O)CNC(=O)C1(C)C(c2ccc(Cl)o2)C(c2ccc(F)cc2F)=NN1c1ccc(F)cc1F (stereo not drawn) [Compound 121, methyl 2-(4-(5-chlorofuran-2-yl)-1,3-bis(2,4-difluorophenyl)-5-methyl-4,5-dihydro-1H-pyrazole-5-carboxamido)acetate]
IC50 [1]: < 0.25 µM
IC50 [2]: < 0.25 µM
IC50 [3]: < 0.25 µM

CC1(C(=O)NCCCN2CCOCC2)C(c2cccs2)C(c2ccc(F)cc2)=NN1c1ccc(F)cc1F (stereo not drawn) [Compound 122, 1-(2,4-difluorophenyl)-3-(4-fluorophenyl)-5-methyl-N-(3-morpholinopropyl)-4-(thiophen-2-yl)-4,5-dihydro-1H-pyrazole-5-carboxamide]
IC50 [1]: > 2 µM
IC50 [2]: > 2 µM
IC50 [3]: > 2 µM

CNC(=O)CNC(=O)C1(C)C(c2cccs2)C(c2ccc(F)cc2)=NN1c1ccc(F)cc1F (stereo not drawn) [Compound 123, 1-(2,4-difluorophenyl)-3-(4-fluorophenyl)-5-methyl-N-(2-(methylamino)-2-oxoethyl)-4-(thiophen-2-yl)-4,5-dihydro-1H-pyrazole-5-carboxamide]
IC50 [1]: > 2 µM
IC50 [2]: > 2 µM
IC50 [3]: 1 to 2 µM

CC1(C(=O)NCC(O)CCO)C(c2cccs2)C(c2ccc(F)cc2)=NN1c1ccc(F)cc1F (stereo not drawn) [Compound 124, 1-(2,4-difluorophenyl)-N-(2,4-dihydroxybutyl)-3-(4-fluorophenyl)-5-methyl-4-(thiophen-2-yl)-4,5-dihydro-1H-pyrazole-5-carboxamide]
IC50 [1]: > 2 µM
IC50 [2]: > 2 µM
IC50 [3]: > 2 µM

CC1(C(=O)NCCNC(=O)CCCCC2SC[C@@H]3NC(=O)N[C@H]23)C(c2cccs2)C(c2ccc(F)cc2)=NN1c1ccc(F)cc1F (stereo partly drawn) [Compound 125, 1-(2,4-difluorophenyl)-3-(4-fluorophenyl)-5-methyl-N-(2-(5-((3aS,6aR)-2-oxohexahydro-1H-thieno[3,4-d]imidazol-4-yl)pentanamido)ethyl)-4-(thiophen-2-yl)-4,5-dihydro-1H-pyrazole-5-carboxamide]
IC50 [1]: > 2 µM
IC50 [2]: > 2 µM
IC50 [3]: > 2 µM

CC1(C(=O)NCCN2CCOCC2)C(c2cccs2)C(c2ccc(F)cc2)=NN1c1ccc(F)cc1F (stereo not drawn) [Compound 126, 1-(2,4-difluorophenyl)-3-(4-fluorophenyl)-5-methyl-N-(2-morpholinoethyl)-4-(thiophen-2-yl)-4,5-dihydro-1H-pyrazole-5-carboxamide]
IC50 [1]: > 2 µM
IC50 [2]: > 2 µM
IC50 [3]: > 2 µM

CN1CCOC(CNC(=O)C2(C)C(c3cccs3)C(c3ccc(F)cc3)=NN2c2ccc(F)cc2F)C1 (stereo not drawn) [Compound 127, 1-(2,4-difluorophenyl)-3-(4-fluorophenyl)-5-methyl-N-((4-methylmorpholin-2-yl)methyl)-4-(thiophen-2-yl)-4,5-dihydro-1H-pyrazole-5-carboxamide]
IC50 [1]: 0.5 to 1 µM
IC50 [2]: 0.5 to 1 µM
IC50 [3]: < 0.25 µM

CC1(C(=O)NCC(=O)OCCO)C(c2cccs2)C(c2ccc(F)cc2)=NN1c1ccc(F)cc1F (stereo not drawn) [Compound 128, 2-hydroxyethyl 2-(1-(2,4-difluorophenyl)-3-(4-fluorophenyl)-5-methyl-4-(thiophen-2-yl)-4,5-dihydro-1H-pyrazole-5-carboxamido)acetate]
IC50 [1]: 0.5 to 1 µM
IC50 [2]: 0.5 to 1 µM
IC50 [3]: 0.25 to 0.5 µM

CC(C)(CO)CCCNC(=O)C1(C)C(c2ccoc2)C(c2ccc(F)cc2F)=NN1c1ccc(F)cc1F (stereo not drawn) [Compound 129, 1,3-bis(2,4-difluorophenyl)-4-(furan-3-yl)-N-(5-hydroxy-4,4-dimethylpentyl)-5-methyl-4,5-dihydro-1H-pyrazole-5-carboxamide]
IC50 [1]: 0.5 to 1 µM
IC50 [2]: 0.5 to 1 µM
IC50 [3]: 0.25 to 0.5 µM

COCCNC(=O)C1(C)C(c2ccoc2)C(c2ccc(F)cc2F)=NN1c1ccc(F)cc1F (stereo not drawn) [Compound 130, 1,3-bis(2,4-difluorophenyl)-4-(furan-3-yl)-N-(2-methoxyethyl)-5-methyl-4,5-dihydro-1H-pyrazole-5-carboxamide]
IC50 [1]: > 2 µM
IC50 [2]: > 2 µM
IC50 [3]: 0.5 to 1 µM
